Reference: patent US20220324897A1, “CRYSTAL FORM OF SGLT INHIBITOR AND APPLICATION THEREOF” (SHANDONG DANHONG PHARMACEUTICAL CO., LTD., priority 2019, published 2022)

Assays:
[1] = Hygroscopicity study by dynamic vapor sorption (DVS); type: physicochemical; details: 25° C. and 80% RH
Method: Dynamic Vapor Sorption (DVS) Method of the Present Invention
Instrument Model: […] Advantage-1 dynamic vapor adsorber
Test conditions: Sample (10-30 mg) is placed in the DVS sample tray for testing.
Detailed DVS parameters are as follows:
Balance: dm/dt=0.002%/min (shortest: 10 min, longest: 180 min)
RH (%) test step range: 0-95-0
Hygroscopicity evaluation and classification are as follows:
SMS DVS Advantage Dynamic Vapor Sorption Intrinsic

SD rats = assay: Pharmacodynamic study in rats OGTT model; type: in vivo, rat; details: for OGTT Blood glucose levels AUC0-2 hr: SD rats, mean ± standard error
Method: SD rats, male, aged 7-8 weeks, purchased from Zhejiang Weitonglihua Experimental Animal Technology Co. Ltd. are maintained in a special pathogen-free environment, with 4 rats in a single ventilation cage. Beddings and water in all cages are sterilized prior to use. All animals can freely obtain a standard certified commercial laboratory diet.
After the animals are adapted to the environment for one week, they are fasted for 16 hours in a metabolic cage, and randomly divided into different groups according to fasting blood glucose and body weight. The animals are administered with a drug or solvent (2 mL/kg), followed by immediately administration of 50% glucose solution (2 g/kg, 4 mL/kg), 2 hours after the administration of glucose solution, the feed is recovered, and blood samples are collected at 0 min, 15 min, 30 min, 45 min, 60 min, and 120 min for blood glucose testing. All values are expressed as average values. Statistical analysis is carried out using Graphpad Prism 6 double factor variance analysis and evaluated with Tukey's multiple comparison tests. P values less than 0.05 are considered to have statistical significance.

[2] = Solid stability test of crystal form A; type: physicochemical
Method: Each part is placed at the bottom of a HPLC vial and spread into a thin layer. Samples placed in a constant temperature and constant humidity box at 60° C./75% RH and samples placed in a 92.5% RH dryer are sealed with a sealing film on the bottle mouth, and some small holes are made in the sealing film to ensure that the sample can be brought into full contact with the ambient air. Samples placed at 60° C., or under lights or shading conditions are tightly capped (wherein the samples under shading conditions are packaged with a tin foil paper).

[3] = Shading lights, test at the same time with the visible lights + ultraviolet lights group
[4] = Shading lights, test at the same time with the visible lights group
[5] = Visible lights + Ultraviolet lights, illuminance reaches 200 W · hrs/m^2
[6] = Visible lights, illuminance reaches 1.2E+06 Lux · hrs

With `CCc1ccc([C@@H]2O[C@H](SC)[C@@H](O)[C@H](O)[C@H]2O)cc1Cc1ccc(C2=CCC(F)(F)CC2)cc1` the Hygroscopicity classification [1] was “almost no hygroscopicity”, the “ΔW, weight gain caused by hygroscopicity” value [1] was 0.1483% and the OGTT Blood glucose levels AUC0-2 hr (SD rats; 1 mg/kg) was 1070 mmol/L/min. For the same compound, the OGTT Blood glucose levels AUC0-2 hr (SD rats; 3 mg/kg) was 977 mmol/L/min, the OGTT Blood glucose levels AUC0-2 hr (SD rats; 10 mg/kg) was 881 mmol/L/min and the “Effect on blood glucose level, AUC0-2hr, conclusion” value (SD rats; rat OGTT, in 2 hours) was “effectively and significantly reduce the blood glucose level”. The Crystal form ([2]; 0 day) was “Crystal form A”, the “Purity (area %)” value ([2]; 0 day) was 96.48 area % and the Crystal form ([2]; 60° C., 5 days) was “Crystal form A”. For the same compound, the “Purity (area %)” value ([2]; 60° C., 5 days) was 96.38 area %, the Crystal form ([2]; 60° C., 10 days) was “Crystal form A” and the “Purity (area %)” value ([2]; 60° C., 10 days) was 96.41 area %. The Crystal form ([2]; 60° C./75% RH, 1 months) was “Crystal form A”, the “Purity (area %)” value ([2]; 60° C./75% RH, 1 months) was 96.31 area % and the Crystal form ([2]; 60° C./75% RH, 2 months) was “Crystal form A”. The “Purity (area %)” value ([2]; 60° C./75% RH, 2 months) was 96.39 area %, the Crystal form ([2]; 60° C./75% RH, 3 months) was “Crystal form A” and the “Purity (area %)” value ([2]; 60° C./75% RH, 3 months) was 96.37 area %. The Crystal form ([2]; 92.5% RH, 5 days) was “Crystal form A”, the “Purity (area %)” value ([2]; 92.5% RH, 5 days) was 96.41 area % and the Crystal form ([2]; 92.5% RH, 10 days) was “Crystal form A”. For the same compound, the “Purity (area %)” value ([2]; 92.5% RH, 10 days) was 96.47 area %, the Crystal form [2, 3] was “Crystal form A” and the “Purity (area %)” value [2, 3] was 96.43 area %. For the same compound, the Crystal form [2, 4] was “Crystal form A”, the “Purity (area %)” value [2, 4] was 96.44 area % and the Crystal form [2, 5] was “Crystal form A”. For the same compound, the “Purity (area %)” value [2, 5] was 95.75 area %, the Crystal form [2, 6] was “Crystal form A” and the “Purity (area %)” value [2, 6] was 96.29 area %. For the same compound, the “Solid stability, conclusion” value ([2]; all tested conditions of Table 3) was “Conclusion: The crystal forms A of compound of formula (I) has good stability”.
Work on `CCOc1ccc(Cc2cc([C@@H]3O[C@H](SC)[C@@H](O)[C@H](O)[C@H]3O)ccc2Cl)cc1` [Sotagliflozin, reference compound] yielded an OGTT Blood glucose levels AUC0-2 hr (SD rats; 3 mg/kg) of 1050 mmol/L/min.
